Results published in patent publication US20120183580A1, “Analgesic Composition for Transbuccal Administration” (priority 2011, published 2012).
Where two headings read alike, the source gives them in different places. Where a SMILES comes first, the peptide text is derived from it.

Assays:
[1] = cited from earlier work; for bioavailability by the sublingual route: oxytocin in physiological saline solution
[2] = test system: rats; test: elevated-plus maze test; details: rat, in vivo
Text: Two opposite arms of the elevated-plus maze are enclosed by high walls (closed arms) while the other two are not (open arms). The test animals (rats) naturally prefer and spend more time in the closed aims.

[3] = test system: Swiss albino mice
Experimental: Swiss albino mice (˜20-30 g) were first trained on the rotarod, which accelerated from 0-20 rpm over 5 min, prior to the experiment. Only mice that were capable of staying on the rotarod for the entire 5 min period were used in this experiment. Mice were either administered with the peptide (1 or 10 mg/kg, sublingual), or morphine (20 mg/kg, subcutaneous). After drug administration, the animals are placed on the rotarod and the time taken for the mice to slip was recorded (up to 5 min), and subsequently at 1 h, 2 h and 3 h post peptide, and at 30 min, 1 h 30 min and 2 h 30 min post morphine. Statistical comparison was done by either Student's t-test or one-way ANOVA.

[4] = test system: Swiss albino mice; remark: listed apart in the source
Experimental: Swiss albino mice (˜30-40 g) were first placed into their respective chambers with a 20 min pre-treatment recording. Only mice showing at least 50 counts/5 min are used in the experiments. Mice were administered saline (control), peptide (5 or 50 mg/kg) or morphine (50 mg/kg). Experimenters were blind to the identity of the drug solutions. […] Statistical comparison was done by 2-way ANOVA.

[5] = test system: Swiss albino mice; details: mouse, in vivo
Experimental: Swiss albino mice (30-35 g) were injected with saline, the peptide (5 mg/kg, 50 mg/kg intraperitoneal) or morphine (0.5 mg/kg, 5 mg/kg, 50 mg/kg intraperitoneal). The experimenters are blind to the identity of the solutions. All mice were administered 5 mg charcoal (0.1 ml of 50 mg/ml charcoal solution) via oral gavage immediately after drug administration. At 30 min post-drug/charcoal administration, the mice were sacrificed by cervical dislocation and the GI tract was exposed and the location of the charcoal identified. The distance the charcoal traveled in the intestine from the stomach was measured and expressed as % of total length of the GI tract.

[6] = pharmacokinetics: plasma concentration by LC/MS/MS after sublingual, intravenous, oral, intraperitoneal administration; format: in vivo, mice; details: mouse
Experimental: The peptide (1, 5, 15 and 25 mg/kg, 0.5 ml/kg) was administered sublingually to mice. Upon reaching specified time points of 1, 5, 15, 30, 60 and 120 min post-dose, each mouse was sacrificed and blood samples were collected via cardiac puncture. Plasma samples were then extracted and analyzed under LC/MS/MS.
Systemic exposure of the peptide was also studied through intravenous, oral (gavage) and intraperitoneal routes.

[7] = test system: Swiss albino mice; test: toxicity, single dose regimen; format: in vivo; details: single dose 8 or 80 mg/kg intraperitoneal, day 14
Experimental: (§1) Swiss albino mice were administered with the peptide at 8 mg/kg or 80 mg/kg (intraperitoneal) on day 1 and then observed for 14 days. Control mice received saline. At the end of the period, all mice were sacrificed, dissected and observed for any obvious abnormality. Weights of the major organs, including brain, heart, lung, liver, spleen and kidney, were recorded.

[8] = test system: Swiss albino mice; test: toxicity, multiple dose regimen; format: in vivo; details: 8 or 80 mg/kg intraperitoneal daily, 14 days
Experimental: as §1, with “once daily” for “on day 1 and then observed”, “killed,” for “sacrificed,”

[9] = test system: C57 mice; format: in vivo; details: 8 or 80 mg/kg intraperitoneal once daily for 14 days
Experimental: as §1, with “once daily” for “on day 1 and then observed”, “killed,” for “sacrificed,”
The multiple dose toxicity testing was repeated exactly as described above except that C57 mice were used instead of Swiss albino mice. Similar results were obtained in terms of body weights, vital organ weights and behavior of control and treated animals (data not shown).

[10] = acute high dose toxicity; format: in vivo, mice; details: mouse, in vivo; intravenous, mice
Experimental: (§2) Acute toxicity was determined by both oral and intravenous administration of the peptide. Three mice were given a dose of peptide at 2 g/kg orally by gavage, 5 ml/kg.

[11] = test system: mice; test: acute high dose toxicity; format: in vivo
Experimental: as §2

[12] = test system: Sprague-Dawley rats; test: acute effect on blood pressure in anesthetized rats; format: in vivo; details: for effect on blood pressure: 5 and 20 mg/kg
Experimental: Sprague-Dawley rats (˜300 g) were anesthetized and the carotid artery was cannulated for blood pressure measurement. Drugs were administered by the pre-determined route. A pulse transducer was secured across the thoracic region of the rat to allow measurement of respiration rate. Blood pressure was recorded for at least 15 min or until a relatively stable blood pressure was observed.

[13] = test system: rats; details: 1 or 50 mg/kg intraperitoneal, vs saline control
Text: The open field was divided into 16 equal size squares (25×25 cm). The 4 squares at the centre are assigned a low anxiety score (0) while those at the 4 corners are assigned a high anxiety score (2). The remaining 8 squares are assigned a medium score (1). A rat entering each square will be given the score assigned to that square. The sum total obtained within the 5-min test period divided by the number of squares entered is the anxiety score for that rat. Diazepam was used as positive control. Statistical comparison was done by Student's t-test.

In the case of `NC(=O)CC[C@@H]1NC(=O)[C@H](Cc2ccccc2)NC(=O)[C@H](Cc2ccc(O)cc2)NC(=O)CCSSC[C@@H](C(=O)N2CCC[C@H]2C(=O)N[C@H](CCCN=C(N)N)C(=O)NCC(N)=O)NC(=O)[C@H](CC(N)=O)NC1=O` [desmopressin], the “bioavailability by the sublingual route” value [1] is listed as “about 0.25%”.

In the case of `CN1C(=O)CN=C(c2ccccc2)c2cc(Cl)ccc21` [diazepam], the “time spent in the open or closed arms” value [2] was “reversed the times spent in open and closed arms”.

With `CN1CC[C@]23c4c5ccc(O)c4O[C@H]2[C@@H](O)C=C[C@H]3[C@H]1C5` [morphine, reference compound] the “motor-coordination (time on rotarod)” value ([3]; mouse, in vivo) was “No statistical significant effects”, the “locomotor activity vs control” value ([4]; mouse, in vivo) was “significant increase in locomotive activities” and the “GI motility (distance traveled by charcoal)” value [5] was “dose-dependently decreased GI motility”.

In the case of `CC[C@H](C)[C@@H]1NC(=O)[C@H](Cc2ccc(O)cc2)NC(=O)[C@@H](N)CSSC[C@@H](C(=O)N2CCC[C@H]2C(=O)N[C@@H](CC(C)C)C(=O)NCC(N)=O)NC(=O)[C@H](CC(N)=O)NC(=O)[C@H](CCC(N)=O)NC1=O` [oxytocin], the bioavailability ([1]; formulation including 0.75% w/w sodium taurocholate (tablet form)) is given as 27% and the “bioavailability by the sublingual route” value [1] is given as 0.007-0.07%.

For `C[C@@H](O)[C@H](NC(=O)[C@@H]1CCCN1C(=O)[C@H](Cc1ccccc1)NC(=O)[C@@H]1CCCN1C(=O)[C@@H](N)CC(N)=O)C(=O)N[C@@H](Cc1c[nH]c2ccccc12)C(=O)N[C@@H](CCCNC(=N)N)C(=O)N[C@@H](CCCCN)C(=O)N[C@@H](CCCNC(=N)N)C(=O)N1CCC[C@H]1C(=O)NCC(=O)O` [the peptide, NPFPTWRKRPG] (H-NPFPTWRKRPG-OH; N-terminus and C-terminus assumed), the bioavailability ([6]; 25 mg/kg, sublingual route, AUC compared to intravenous route) was 44%, the Tmax ([6]; after sublingual administration, read-out: time of highest level in the plasma (converted)) was 5 min and the organ appearance [7] was “All organs appeared normal”. For the same compound, the organ appearance [8] was “All organs appeared normal”, the death [9] was “No death occurred” and the LD50 at 2 weeks [10] was roughly 125 mg/kg. For the same compound, the clinical observation ([11]; 62.5 mg/kg intravenous) was “appeared sedated”, the “clinical observation, surviving mice” value ([11]; 125 mg/kg intravenous) was “appeared heavily sedated for several hours” and the clinical observation ([11]; 2 g/kg oral by gavage) was “appeared sedated with much decreased activity”. The “effect on blood pressure” value ([12]; intravenous route) was “decreased in blood pressure”, the “effect on blood pressure” value ([12]; sublingual or intraperitoneal routes) was “did not cause any changes in blood pressure” and the “heart rate and respiration rate” value ([12]; all experiments (5 and 20 mg/kg, all routes)) was “No significant changes”. The “motor-coordination (time on rotarod)” value ([3]; 1 or 10 mg/kg sublingual, up to 3 h post-dose) was “No statistical significant effects”, the “locomotor activity vs control” value ([4]; 5 or 50 mg/kg, within 4 h of drug administration) was “no significant difference” and the anxiety score [13] was “did not show any effect”.
